Experimental data taken from patent publication US20250084074A1, “SUBSTITUTED HETEROCYCLES AS HSET INHIBITORS” (MERCK PATENT GMBH, priority 2022, published 2025).

Molecular target: HSET full length protein (Homo sapiens (Human), UniProt Q9BW19)
Assay: HSET ADP-Glo Assay S - 3 μM ATP
Format: biochemical
Conditions: 5 nM HSET, 70 μg/mL microtubule, 80 min at rt, read-out: COMBINED HSET ADP GLO IC50
Procedure, shortened: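 ADP-Glo luminescence read-out: ATPase reaction at 3 μM ATP, 80 min at room temperature, after a 10 min compound preincubation. Enzyme was full-length human HSET at 5 nM, stimulated by 70 μg/mL paclitaxel-stabilised bovine microtubules in HEPES pH 6.8 buffer with MgCl2, EGTA, Triton X-100 and DTT.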

Chain of HSET full length protein (Q9BW19 whole entry): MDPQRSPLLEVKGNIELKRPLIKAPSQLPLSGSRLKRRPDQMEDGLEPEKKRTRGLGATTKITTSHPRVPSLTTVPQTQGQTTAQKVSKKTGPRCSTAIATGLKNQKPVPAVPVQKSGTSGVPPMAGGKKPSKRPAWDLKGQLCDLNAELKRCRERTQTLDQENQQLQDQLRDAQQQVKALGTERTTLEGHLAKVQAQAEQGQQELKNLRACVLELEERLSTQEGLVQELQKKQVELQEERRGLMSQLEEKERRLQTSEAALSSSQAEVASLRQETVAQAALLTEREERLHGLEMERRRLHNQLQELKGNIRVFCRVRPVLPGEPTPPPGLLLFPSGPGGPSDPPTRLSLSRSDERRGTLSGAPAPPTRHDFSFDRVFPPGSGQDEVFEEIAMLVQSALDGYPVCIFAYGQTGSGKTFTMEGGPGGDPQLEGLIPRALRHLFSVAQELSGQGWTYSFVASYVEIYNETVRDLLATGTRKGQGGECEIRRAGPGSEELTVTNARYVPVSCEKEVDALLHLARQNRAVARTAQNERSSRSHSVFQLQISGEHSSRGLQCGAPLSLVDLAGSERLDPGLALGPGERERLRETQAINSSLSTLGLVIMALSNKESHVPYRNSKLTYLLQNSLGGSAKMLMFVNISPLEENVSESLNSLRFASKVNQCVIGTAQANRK

| Structure (SMILES) | IC50 [µM] |
| --- | --- |
| Cc1nc(-c2ccc3ccnc(N[C@H]4CCN(C(=O)c5cnn(C(C)(C)C)c5)C4)c3c2)no1 [Example 252, (1-tert-Butylpyrazol-4-yl)-[(3S)-3-[[7-(5-methyl-1,2,4-oxadiazol-3-yl)-1-isoquinolyl]amino]pyrrolidin-1-yl]methanone] | 16.4 |
| Cc1nc(-c2ccc3ccnc(N[C@H]4CCN(C(=O)c5cc(C(C)C)[nH]n5)C4)c3c2)no1 [Example 253, (S)-(5-isopropyl-1 H-pyrazol-3-yl)(3-((7-(5-methyl-1,2,4-oxadiazol-3-yl)isoquinolin-1-yl)amino)pyrrolidin-1-yl)methanone] | 3.41 |
| Cc1nc(-c2ccc3ccnc(N[C@H]4CCN(C(=O)c5cc(C(C)(C)C)[nH]n5)C4)c3c2)no1 [Example 254, (S)-(5-(tert-butyl)-1 H-pyrazol-3-yl)(3-((7-(5-methyl-1,2,4-oxadiazol-3-yl)isoquinolin-1-yl)amino)pyrrolidin-1-yl)methanone] | 6.1 |
| CCCOC(=O)c1sc(C(=O)N2CC[C@@H](Nc3nccc4ccc(-c5noc(C)n5)cc34)[C@@H]2C)nc1C [Example 255, Propyl 4-methyl-2-((2S,3R)-2-methyl-3-((7-(5-methyl-1,2,4-oxadiazol-3-yl)isoquinolin-1-yl)amino)pyrrolidine-1-carbonyl)thiazole-5-carboxylate] | 0.027 |
| CCCOC(=O)c1sc(C(=O)N2C[C@@H](F)[C@H](Nc3nccc4ccc(-c5noc(C)n5)cc34)C2)nc1C [Example 256, propyl 2-((3R,4R)-3-fluoro-4-((7-(5-methyl-1,2,4-oxadiazol-3-yl)isoquinolin-1-yl)amino)pyrrolidine-1-carbonyl)-4-methylthiazole-5-carboxylate] | 0.02 |
| CCCOC(=O)n1cc(NC(=O)CCNc2nccc3ccc(-c4noc(C)n4)cc23)nc1C [Example 257, Propyl 2-methyl-4-(3-{[7-(5-methyl-1,2,4-oxadiazol-3-yl)isoquinolin-1-yl]amino}propanamido)-1 H-imidazole-1-carboxylate] | 0.047 |
| Cc1nc(-c2ccc3ccnc(NCCC(=O)Nc4cn(C(=O)OC(C)C)c(C)n4)c3c2)no1 [Example 258, Propan-2-yl 2-methyl-4-(3-{[7-(5-methyl-1,2,4-oxadiazol-3-yl)isoquinolin-1-yl]amino}propanamido)-1 H-imidazole-1-carboxylate] | 0.207 |
| CCOC(=O)n1cc(NC(=O)CCNc2nccc3ccc(-c4noc(C)n4)cc23)nc1C [Example 259, Ethyl 2-methyl-4-(3-{[7-(5-methyl-1,2,4-oxadiazol-3-yl)isoquinolin-1-yl]amino}propanamido)-1 H-imidazole-1-carboxylate] | 0.531 |
| CCCOC(=O)n1cnc(NC(=O)CCNc2nccc3ccc(-c4noc(C)n4)cc23)c1 [Example 260, Propyl 4-(3-{[7-(5-methyl-1,2,4-oxadiazol-3-yl)isoquinolin-1-yl]amino}propanamido)-1 H-imidazole-1-carboxylate] | 0.14 |
| CCCOC(=O)n1cc(NC(=O)[C@H](O)CNC(=O)c2cccc(-c3cnn(C)c3)c2)nc1C [Example 268] | 0.95 |
| Cc1nc(NC(=O)[C@H](O)CNC(=O)c2cccc(-c3cnn(C)c3)c2)cn1C(=O)OC(C)C [Example 270] | 5.1 |

Continued, values first:

| IC50 [µM] | Structure (SMILES) |
| --- | --- |
| 13 | CCOC(=O)n1cc(NC(=O)CCNc2nccc3ccc(-c4cnn(C)c4)cc23)nc1C [Example 261, Ethyl 2-methyl-4-(3-{[7-(1-methyl-1 H-pyrazol-4-yl)isoquinolin-1-yl]amino}propanamido)-1 H-imidazole-1-carboxylate] |
| 1 | CCCOC(=O)n1cc(NC(=O)CCNc2nccc3ccc(-c4cnn(C)c4)cc23)nc1C [Example 262, Propyl 2-methyl-4-(3-{[7-(1-methyl-1 H-pyrazol-4-yl)isoquinolin-1-yl]amino}propanamido)-1 H-imidazole-1-carboxylate] |
| 0.2 | CCCOC(=O)n1cc(NC(=O)CCNC(=O)c2cccc(-c3noc(C)n3)c2)nc1C [Example 263] |
| 0.28 | Cc1nc(-c2cccc(C(=O)NCCC(=O)Nc3cn(C(=O)OC(C)C)c(C)n3)c2)no1 [Example 264] |
| 2.25 | CCOC(=O)n1cc(NC(=O)CCNC(=O)c2cccc(-c3noc(C)n3)c2)nc1C [Example 265] |
| 3.4 | CCCOC(=O)n1cnc(NC(=O)CCNC(=O)c2cccc(-c3noc(C)n3)c2)c1 [Example 266, Propyl 4-(3-{[3-(5-methyl-1,2,4-oxadiazol-3-yl)phenyl]formamido}-propanamido)-1 H-imidazole-1-carboxylate] |
| 0.38 | CCCOC(=O)n1cc(NC(=O)[C@@H](O)CNC(=O)c2cccc(-c3cnn(C)c3)c2)nc1C [Example 267] |
| 0.91 | Cc1nc(NC(=O)[C@@H](O)CNC(=O)c2cccc(-c3cnn(C)c3)c2)cn1C(=O)OC(C)C [Example 269] |
| 4 | CCOC(=O)n1cc(NC(=O)[C@@H](O)CNC(=O)c2cccc(-c3cnn(C)c3)c2)nc1C [Example 271] |
| 0.16 | Cc1nc(-c2ccc3ccnc(NCCC(=O)Nc4cnn(C(=O)OC(C)(C)C)c4)c3c2)no1 [Example 272, tert-Butyl 4-(3-{[7-(5-methyl-1,2,4-oxadiazol-3-yl)isoquinolin-1-yl]amino}propanamido)-1 H-pyrazole-1-carboxylate] |
| 0.08 | CCCOC(=O)n1cc(NC(=O)CCNc2nccc3ccc(-c4noc(C)n4)cc23)cn1 [Example 273, Propyl 4-(3-{[7-(5-methyl-1,2,4-oxadiazol-3-yl)isoquinolin-1-yl]amino}propanamido)-1 H-pyrazole-1-carboxylate] |
| 11.5 | CCCOC(=O)n1cc(NC(=O)CCNC(=O)c2cccc(-c3noc(C)n3)c2)cn1 [Example 275, Propyl 4-(3-{[3-(5-methyl-1,2,4-oxadiazol-3-yl)phenyl]formamido}-propanamido)-1 H-pyrazole-1-carboxylate] |
| 0.037 | CCCOC(=O)c1sc(NC(=O)CCNC(=O)c2cccc(-c3noc(C)n3)n2)nc1C [Example 276, Propyl 4-methyl-2-(3-{[6-(5-methyl-1,2,4-oxadiazol-3-yl)pyridin-2-yl]formamido}propanamido)-1,3-thiazole-5-carboxylate] |
| 0.155 | Cc1nc(-c2cccc(C(=O)NCCC(=O)Nc3nc(C)c(C(=O)OC(C)(C)C)s3)n2)no1 [Example 277, tert-Butyl 4-methyl-2-(3-{[6-(5-methyl-1,2,4-oxadiazol-3-yl)pyridin-2-yl]formamido}propanamido)-1,3-thiazole-5-carboxylate] |
| 0.071 | Cc1nc(-c2cccc(C(=O)NCCC(=O)Nc3nc(C)c(C(=O)OC(C)C)s3)n2)no1 [Example 278] |
| 0.86 | Cc1nc(-c2cccc(C(=O)NCCC(=O)Nc3nc(C)c(C(=O)OC(C)(C)C)s3)c2F)no1 [Example 279] |
| 0.141 | CCCOC(=O)c1sc(NC(=O)CCNc2nccc3ccc(C)cc23)nc1C [Example 280, Propyl 4-methyl-2-[3-[(7-methyl-1-isoquinolyl)amino]propanoyl-amino]thiazole-5-carboxylate] |

Molecular target: HSET (Homo sapiens (Human), UniProt Q9BW19)
Assay: not given
Conditions: literature (Watts et al., 2013; Zhang et al., 2016); read-out: HSET IC50 in biochemical assays; cited from earlier work

Chain of HSET (Q9BW19 whole entry): as above

| Structure (SMILES) | IC50 [µM] |
| --- | --- |
| O=C(O)c1cc(I)ccc1NC(=O)[C@H](Cc1ccccc1)NCc1ccccc1 [CW069] | 75 |
| COc1ccc(-c2nc(N)s[n+]2-c2ccccc2)cc1 [SR31527] | 6.6 |
